The values below come from patent publication US4368267A, “Epoxidation of lower α-olefins” (priority 1980, dated 1983).

Where a name gives a salt, the structure may show the parent alone.

The test system of assay [1] is Methylobacter capsulatus Y (NRRL B-11,201). Kind of assay: Methane hydroxylation and propylene epoxidation by washed cell suspensions. The conditions noted are these: Propylene + 5 mM stimulator compound. Type of assay: cell-based. On the procedure: (§1) The pH of the nutrient medium was adjusted to 7.0 by the addition of acid or base and 50 ml aliquots of the nutrient medium was charged into a plurality of 300 ml shake flasks. The shake flasks were inoculated with an inoculating loop of cells from an agar plate containing homogeneous colonies of the microorganisms on the plate (the purity of the isolates were confirmed by microscopic examination). The isolates had been maintained on agar plates under an atmosphere of methane and air having a 1:1 v/v gas ratio which had been transferred every two weeks. The gaseous phase of the inoculated flasks was then replaced with a gas mixture comprised of methane and air having a ratio of 1:1 on a v/v basis. The inoculated flasks were sealed air tight and were incubated on a rotary shaker of orbital radius 2.5 cm at 250 rpm and at 30° C. for two days until the turbidity in the medium had developed.
(§2) The cells were harvested by centrifugation at 10,000 ×g at 4° C. for 30 minutes. The cell pellet was washed twice with a 0.15 M phosphate buffer at a pH of 7.0 (containing 0.002 M MgCl2). The washed cells were then suspended in a 0.15 M phosphate buffer at pH 7.0.
(§3) A 0.5 ml aliquot of each washed cell suspension (2 mg cells) was put into 10 ml vials at 4° C. which were sealed with a rubber cap. […] It was then incubated at 30° C. on a rotary shaker at 300 rpm. Samples of product (3 μl) were withdrawn periodically with a microsyringe and the products were analyzed by gas chromatography (ionization flame detector column).
Several experiments were carried out using a plurality of compounds capable of generating the necessary reducing power (NADH2 or NADPH2) required for the epoxidation of alkenes or dienes. […]

Assay [2] deals with Methylobacterium organophilum (CRL 26, NRRL B-11,222). Kind of assay: Epoxidation/hydroxylation by washed cell suspensions. The following applies: Propylene + 5 mM stimulator compound. The assay is classed as cell-based. The protocol: as §1, §2
(§4) A 0.5 ml aliquot of each washed cell suspension (2 mg cells) was put into 10 ml vials at 4° C. which were sealed with a rubber cap. The gaseous phase of the vials was removed with vacuum and then was replaced with a gas mixture of alkene and oxygen at a 1:1 v/v ratio. It was then incubated at 30° C. on a rotary shaker at 300 rpm. Samples of product (3 μl) were withdrawn periodically with a microsyringe and the products were analyzed by gas chromatography (ionization flame detector column).
(§5) Several experiments were carried out using a plurality of compounds capable of generating the necessary reducing power (NADH2 or NADPH2) required for the epoxidation of alkenes or dienes. These experiments were carried out using cell suspensions of methane grown methylotrophs using the procedure as described in Example 1 except that a stimulator compound was added to the reaction medium.

The subject of assay [3] is Methylococcus capsulatus strain MC. Description: Stimulation of propylene epoxidation in cell suspensions. The assay is classed as cell-based. The following applies: Propylene + 5 mM stimulator compound. On the procedure: as §1, §2, §4, §5
The test system of assay [4] is Methylococcus capsulatus (CRL M1, NRRL B-11,219). Kind of assay: Oxidation/epoxidation by washed cell suspensions. Type of assay: cell-based. The following applies: methane-grown washed cells.
Assay [5] has as its system P(40), P(80), S(80) cell fractions of Methylosinus sp. (CRL-15, NRRL B-11,202). Kind of assay: Oxidation of n-alkanes and n-alkenes by cell fractions. The conditions noted are these: for % Inhibition, Propylene-Epoxidizing Activity / % Inhibition, Methane-Hydroxylating Activity / Methane-Oxidizing Activity in presence of metal / Propylene-Oxidizing Activity in presence of metal: P(40) fraction; for % Inhibition, Propylene-Epoxidizing Activity / % Inhibition, Methane-Hydroxylating Activity: inhibitor 10^-3 M; for % Inhibition, Propylene-Epoxidizing Activity: uninhibited rate 4.1; for % Inhibition, Methane-Hydroxylating Activity: uninhibited rate 4.5; for Rate of Product Formation (substrate to 1,2-epoxide or alcohol): P(40) particulate fraction, 30° C.; for Methane-Oxidizing Activity in presence of metal / Propylene-Oxidizing Activity in presence of metal: metal 10^-3 M; for Methane-Oxidizing Activity in presence of metal: control 4.0; for Propylene-Oxidizing Activity in presence of metal: control […]. The assay is classed as biochemical. The protocol:
Cells were washed twice with 25 mM potassium phosphate buffer, pH 7.0 containing 5 mM MgCl2. Cells were suspended in the same buffer. The cell suspensions at 4° C. were disintegrated by a single passage through a French Pressure cell (15,000 lb./in.^2) and centrifuged at 5000×g. for 15 min. to remove unbroken bacteria. The supernatant solution (crude extract) was then centrifuged at 40,000×g. for 30 min., yielding particulate P(40) and soluble S(40) fractions. The S(40) fraction was subsequently centrifuged at 80,000×g. for 60 min., yielding particulate P(80) and soluble S(80) fractions. The particulate fractions [P(40) and P(80)] were suspended in 25 mM potassium phosphate buffer, pH 7.0, containing 5 mM MgCl2 and homogenized at 4° C.
[…] The reaction mixtures contained in 1.0 ml: 150 mM potassium phosphate buffer, pH 7.0 containing 5 mM MgCl2, 0.6 ml; […] NADH, and cellular fraction.
Reaction mixtures were contained in 10 ml vials at 4° C. Vials were sealed with rubber caps. The gaseous phase in the vials was removed using vacuum and then was replaced with a gas mixture of methane or propylene and oxygen at a 1:1, v/v ratio. Oxidation of other gaseous n-alkanes and n-alkenes was examined as described above. For liquid substrates, 10 μl of substrate was used directly.
The products of epoxidation of n-alkenes and hydroxylation of n-alkanes were assayed by flame ionization gas chromatography using a stainless steel column (12'×1/8") packed with 10% Carbowax 20 M on 80/100 Chromosorb W and Porapak Q column. The column temperature was maintained isothermally at 120° C. The carrier gas flow rate was 30 ml/min. of helium. The various products were identified by retention time comparisons and co-chromatography with authentic standards.
Specific activities were expressed as μ moles of products formed per hour per mg. protein. Concentrations of protein in various fractions were determined by the method of Lowry et al., J. Biol. Chem. 193: 265-275 (1951).

The test system of assay [6] is Methylosinus trichosporium OB3b (NRRL B-11,196). Kind of assay: Methane hydroxylation and alkene epoxidation by washed cell suspensions. Type of assay: cell-based. The conditions noted are these: methane-grown washed cells, 30° C. The protocol: as §1, with “The shake flasks were inoculated with an inoculating loop of cells from an agar plate containing homogeneous colonies of the microorganisms on the plate (the purity of the isolates were confirmed by microscopic examination).” left out
as §2
[…] The gaseous phase of the vials was removed with vacuum and then was replaced with a gas mixture of alkene and oxygen at a 1:1 v/v ratio. It was then incubated at 30° C. on a rotary shaker at 300 rpm. Samples of product (3 μl) were withdrawn periodically with a microsyringe and the products were analyzed by gas chromatography (ionization flame detector column).

In assay [7] the test system is Methylosinus sporium 5 (NRRL B-11,197). Described as above. The assay is classed as cell-based. The following applies: methane-grown washed cells, 30° C. On the procedure: as §1, with “The shake flasks were inoculated with an inoculating loop of cells from an agar plate containing homogeneous colonies of the microorganisms on the plate (the purity of the isolates were confirmed by microscopic examination).” left out
as §2, §3

Assay [8] has as its system whole cell suspensions of methylotrophs (C1 -utilizing microbes). The conditions noted are these: 2-butanol added; biocatalyst from C1 -C4 gaseous alkane-grown microbes.

Turning to `CCO` [Ethanol], the “Rate of Product Formation (Propylene Oxide)” value (“Rate … (Propylene Oxide)” below) was 370 nmoles/hr/mg protein in assay [1], 124 nmoles/hr/mg protein in assay [2] and 462 nmoles/hr/mg protein in assay [3].
In the case of `CC(C)(C)C` [2,2-dimethylpropane], the “Reaction Rate, 2,2-dimethylpropane to 2,2-dimethylpropanol” value in assay [4] stood at 0.085 μmoles/hr/mg biomass.
In the case of `c1ccc(-c2ccccn2)nc1` [α,α-Bipyridyl, reference compound], in assay [5], the “% Inhibition, Propylene-Epoxidizing Activity” value came out at 98% and the “% Inhibition, Methane-Hydroxylating Activity” value was 99%.
With `C=CCCC` [Pentane-1, pentene-1], the “Conversion rate, Pentane-1 to 1,2-epoxypentane” value in assay [6] and in assay [7] was 0 μmole/hr/mg protein each time. The “Conversion rate, pentene-1 to 1,2-epoxypentane” value in assay [6] and in assay [7] was “did not produce any detectable epoxide” each time. Besides, in assay [5], the “Rate of Product Formation (substrate to 1,2-epoxide or alcohol)” value (from here on “Rate … (substrate to 1,2-epoxide or alcohol)”) is 0 μmoles/hr/mg of protein.
`NNC(N)=S` [Thiosemicarbazide, reference compound]: in assay [5], the “% Inhibition, Propylene-Epoxidizing Activity” value is recorded as 97% and the “% Inhibition, Methane-Hydroxylating Activity” value amounted to 100%.
For `c1cnc2c(c1)ccc1cccnc12` [1,10-phenanthroline, reference compound] the same measures were 93% and 90%.
For `COC` [Dimethylether], in assay [2], the “Rate … (Propylene Oxide)” value is reported as 50 nmoles/hr/mg protein.
As for `[Cl][Fe]([Cl])[Cl]` [Ferric Chloride], in assay [5], the “Methane-Oxidizing Activity in presence of metal” value (shortened to “Methane-Oxidizing Activity”) stood at 4.8 μmoles/hr/mg protein and the “Propylene-Oxidizing Activity in presence of metal” value (from here on “Propylene-Oxidizing Activity”) came out at 5.8 μmoles/hr/mg protein.
In the case of `CC(C)C` [Isobutane], in assay [4], the “Reaction Rate, isobutane to isobutyraldehyde” value was found to be 0.072 μmoles/hr/mg biomass and the “Reaction Rate, isobutane to tertiary butanol” value was 0.051 μmoles/hr/mg biomass.
With `C=CCC` [Butene-1], the “Conversion rate, butene-1 to 1,2-epoxybutane” value in assay [6] was determined as 0.45 μmole/hr/mg protein; in assay [7], 0.8 μmole/hr/mg protein. The “Rate … (substrate to 1,2-epoxide or alcohol)” value in assay [5] is listed as 2.18 μmoles/hr/mg of protein.
Regarding `C=CC=C` [Butadiene], the entries for the “Conversion rate, butadiene to 1,2-epoxybutene” value in assay [6] and in assay [7] were 2.6 μmole/hr/mg protein and 1.5 μmole/hr/mg protein, respectively. Further, the “Rate … (substrate to 1,2-epoxide or alcohol)” value in assay [5] is given as 0.63 μmoles/hr/mg of protein.
Turning to `COC(C)=O` [Methyl Acetate], the results for the “Rate … (Propylene Oxide)” value in assay [2] and in assay [3] were 5.0 nmoles/hr/mg protein and 21 nmoles/hr/mg protein, respectively.
Consider `CC(C)O` [Isopropanol], for which the “Rate … (Propylene Oxide)” value in assay [1] amounted to 13 nmoles/hr/mg protein; in assay [2], 20 nmoles/hr/mg protein; in assay [3], 37 nmoles/hr/mg protein.
On to `Oc1cccc2cccnc12` [8-Hydroxyquinoline, reference compound], for which, in assay [5], the “% Inhibition, Propylene-Epoxidizing Activity” value is given as 75% and the “% Inhibition, Methane-Hydroxylating Activity” value amounted to 80%.
Turning to Ferrous Sulfate, in assay [5], the “Methane-Oxidizing Activity” value was 4.8 μmoles/hr/mg protein and the “Propylene-Oxidizing Activity” value turned out to be 5.9 μmoles/hr/mg protein.
For `O=S(=O)([O-])[O-].[Cu+2]` [Cupric Sulfate] the same measures were 7.1 μmoles/hr/mg protein and 9.0 μmoles/hr/mg protein.
Turning to `CC` [Ethane], the “Rate … (substrate to 1,2-epoxide or alcohol)” value in assay [5] is 3.2 μmoles/hr/mg of protein.
In the case of `COC=O` [Methyl Formate], the “Rate … (Propylene Oxide)” value in assay [1] was 99 nmoles/hr/mg protein; in assay [2], 61 nmoles/hr/mg protein; in assay [3], 390 nmoles/hr/mg protein.
As for `CC=O` [Acetaldehyde], the “Rate … (Propylene Oxide)” value is on record as 13 nmoles/hr/mg protein in assay [2] and 154 nmoles/hr/mg protein in assay [3].
In the same order, the values of `CCCO` [Propanol] are 66 nmoles/hr/mg protein and 243 nmoles/hr/mg protein.
For `C=CC(=C)C` [Isoprene], the “Reaction Rate, isoprene to 1,2-epoxyisoprene” value in assay [4] came to 0.064 μmoles/hr/mg biomass.
Turning to `CCC(C)O` (centres unmarked) [2-Butanol], the entries for the “Rate … (Propylene Oxide)” value in assay [1] and in assay [3] were 26 nmoles/hr/mg protein and 21 nmoles/hr/mg protein, respectively. Further, the “Effect on epoxidation of gaseous n-alkenes” value in assay [8] was “somehow inhibited”.
Take `CCC=O` [Propionaldehyde]: the entries for the “Rate … (Propylene Oxide)” value in assay [1] and in assay [3] were 54 nmoles/hr/mg protein and 40 nmoles/hr/mg protein, respectively.
Turning to `[Cl][Cu]` [Cuprous Chloride], in assay [5], the “Methane-Oxidizing Activity” value is reported as 7.2 μmoles/hr/mg protein and the “Propylene-Oxidizing Activity” value is 9.2 μmoles/hr/mg protein.
As to `C=CCCCC` [Hexene-1], the “Conversion rate, hexene-1 to 1,2-epoxyhexane” value in assay [6] is given as 0 μmole/hr/mg protein; in assay [6] (listed as hexene-1), “did not produce any detectable epoxide”; in assay [7] it was 0 μmole/hr/mg protein; in assay [7] (listed as hexene-1), “did not produce any detectable epoxide”.
On to `NC(N)=S` [Thiourea, reference compound], for which, in assay [5], the “% Inhibition, Propylene-Epoxidizing Activity” value is reported as 98% and the “% Inhibition, Methane-Hydroxylating Activity” value is listed as 98%.
